Assay results taken from patent publication US20080171355A1, “DEVICE FOR TESTING THE EFFECTIVENESS OF DISINFECTANTS ON PROTOZOAN PARASITES” (priority 2006, published 2008).

Test system: Oocysts of Eimeria acervulina
Assay type: cell-based

CC(=O)OO [Peracetic Acid]
Sporulation Rate (%): 65.9%
